Assay results taken from ChEMBL document CHEMBL1201862, “PubChem BioAssay data set” (2004).
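Dose response: 5 concentrations. Exposure: 48 h. Format: 96-well plates. Endpoint: linear interpolation; highest concentration if not reached. Here, GI50 denotes the concentration required for 50% inhibition of growth.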 Active and inactive are the calls of the source. No stated cut-off is given here; in the data, active = GI50 up to about 1.1 µM and inactive = higher.

Assays:
Assay in all cases: NCI tumour cell line growth inhibition, 48 h
786-0 = system: 786-0
A498 = system: A498
A549 = system: A549
ACHN = system: ACHN
BT-549 = system: BT-549
CAKI-1 = system: CAKI-1
CCRF-CEM = system: CCRF-CEM
COLO 205 = system: COLO 205
DU-145 = system: DU-145
EKVX = system: EKVX
HCC 2998 = system: HCC 2998
HCT-116 = system: HCT-116
HCT-15 = system: HCT-15
HL-60 = system: HL-60
HOP-62 = system: HOP-62
HT-29 = system: HT-29
Hs-578T = system: Hs-578T
IGROV-1 = system: IGROV-1
K562 = system: K562
KM12 = system: KM12
LOX IMVI = system: LOX IMVI
M14 = system: M14
MCF7 = system: MCF7
MDA-MB-231 = system: MDA-MB-231
MDA-MB-435 = system: MDA-MB-435
MDA-N = system: MDA-N
MOLT-4 = system: MOLT-4
Malme-3M = system: Malme-3M
NCI-H226 = system: NCI-H226
NCI-H23 = system: NCI-H23
NCI-H460 = system: NCI-H460
NCI-H522 = system: NCI-H522
NCI/ADR-RES = system: NCI/ADR-RES
OVCAR-3 = system: OVCAR-3
OVCAR-4 = system: OVCAR-4
OVCAR-5 = system: OVCAR-5
OVCAR-8 = system: OVCAR-8
PC-3 = system: PC-3
RPMI-8226 = system: RPMI-8226
RXF 393 = system: RXF 393
SF-268 = system: SF-268
SF-295 = system: SF-295
SF-539 = system: SF-539
SK-MEL-28 = system: SK-MEL-28
SK-MEL-2 = system: SK-MEL-2
SK-MEL-5 = system: SK-MEL-5
SK-OV-3 = system: SK-OV-3
SN12C = system: SN12C
SNB-19 = system: SNB-19
SR = system: SR
SW-620 = system: SW-620
T47D = system: T47D
TK-10 = system: TK-10
U-251 = system: U-251
UACC-257 = system: UACC-257
UACC-62 = system: UACC-62

**Q.** `COC(=O)/C=C\[C@H]1[C@H](C)N1S(=O)(=O)c1ccc(C)cc1` (stereo partly specified) was tested. Which GI50 (786-0) did it give?
**A.** The GI50 was > 100 µM (inactive).

**Q.** And the GI50 (A498)?
**A.** The GI50 was > 100 µM (inactive).

**Q.** What about the GI50 (A549) of the same molecule?
**A.** Its GI50 is > 100 µM (inactive).

**Q.** What about the GI50 (ACHN) of the same molecule?
**A.** The GI50 was > 100 µM (inactive).

**Q.** What about the GI50 (BT-549) of the same molecule?
**A.** Its GI50 is > 100 µM (inactive).

**Q.** What about the GI50 (CAKI-1) of the same molecule?
**A.** Its GI50 is > 100 µM (inactive).

**Q.** And the GI50 (CCRF-CEM)?
**A.** The GI50 was 91 µM (inactive).

**Q.** And the GI50 (COLO 205)?
**A.** Its GI50 is > 100 µM (inactive).

**Q.** What about the GI50 (DU-145) of the same molecule?
**A.** The GI50 was > 100 µM (inactive).

**Q.** And the GI50 (EKVX)?
**A.** The GI50 was > 100 µM (inactive).

**Q.** What about the GI50 (HCC 2998) of the same molecule?
**A.** Its GI50 is > 100 µM (inactive).

**Q.** What about the GI50 (HCT-116) of the same molecule?
**A.** Its GI50 is > 100 µM (inactive).

**Q.** And the GI50 (HCT-15)?
**A.** The GI50 was 70.3 µM.

**Q.** And the GI50 (HL-60)?
**A.** Its GI50 is > 100 µM (inactive).

**Q.** And the GI50 (HOP-62)?
**A.** The GI50 was > 100 µM (inactive).

**Q.** What about the GI50 (HT-29) of the same molecule?
**A.** The GI50 was > 100 µM (inactive).

**Q.** What about the GI50 (Hs-578T) of the same molecule?
**A.** The GI50 was > 100 µM (inactive).

**Q.** And the GI50 (IGROV-1)?
**A.** Its GI50 is > 100 µM (inactive).

**Q.** What about the GI50 (K562) of the same molecule?
**A.** Its GI50 is > 100 µM (inactive).

**Q.** What about the GI50 (KM12) of the same molecule?
**A.** The GI50 was > 100 µM (inactive).

**Q.** What about the GI50 (LOX IMVI) of the same molecule?
**A.** Its GI50 is > 100 µM (inactive).

**Q.** What about the GI50 (M14) of the same molecule?
**A.** Its GI50 is > 100 µM (inactive).

**Q.** And the GI50 (MCF7)?
**A.** The GI50 was > 100 µM (inactive).

**Q.** What about the GI50 (MDA-MB-231) of the same molecule?
**A.** The GI50 was > 100 µM (inactive).

**Q.** What about the GI50 (MDA-MB-435) of the same molecule?
**A.** The GI50 was > 100 µM (inactive).

**Q.** And the GI50 (MDA-N)?
**A.** Its GI50 is > 100 µM (inactive).

**Q.** What about the GI50 (MOLT-4) of the same molecule?
**A.** The GI50 was > 100 µM (inactive).

**Q.** What about the GI50 (Malme-3M) of the same molecule?
**A.** Its GI50 is > 100 µM (inactive).

**Q.** And the GI50 (NCI-H226)?
**A.** Its GI50 is > 100 µM (inactive).

**Q.** What about the GI50 (NCI-H23) of the same molecule?
**A.** Its GI50 is > 100 µM (inactive).

**Q.** What about the GI50 (NCI-H460) of the same molecule?
**A.** Its GI50 is > 100 µM (inactive).

**Q.** What about the GI50 (NCI-H522) of the same molecule?
**A.** The GI50 was 20.4 µM (inactive).

**Q.** What about the GI50 (NCI/ADR-RES) of the same molecule?
**A.** The GI50 was > 100 µM (inactive).

**Q.** And the GI50 (OVCAR-3)?
**A.** The GI50 was > 100 µM (inactive).

**Q.** What about the GI50 (OVCAR-4) of the same molecule?
**A.** The GI50 was > 100 µM (inactive).

**Q.** What about the GI50 (OVCAR-5) of the same molecule?
**A.** The GI50 was > 100 µM (inactive).

**Q.** And the GI50 (OVCAR-8)?
**A.** The GI50 was > 100 µM (inactive).

**Q.** And the GI50 (PC-3)?
**A.** The GI50 was > 100 µM (inactive).

**Q.** And the GI50 (RPMI-8226)?
**A.** Its GI50 is > 100 µM (inactive).

**Q.** And the GI50 (RXF 393)?
**A.** The GI50 was > 100 µM (inactive).

**Q.** What about the GI50 (SF-268) of the same molecule?
**A.** The GI50 was > 100 µM (inactive).

**Q.** And the GI50 (SF-295)?
**A.** Its GI50 is > 100 µM (inactive).

**Q.** And the GI50 (SF-539)?
**A.** Its GI50 is > 100 µM (inactive).

**Q.** What about the GI50 (SK-MEL-28) of the same molecule?
**A.** The GI50 was > 100 µM (inactive).

**Q.** And the GI50 (SK-MEL-2)?
**A.** The GI50 was > 100 µM (inactive).

**Q.** What about the GI50 (SK-MEL-5) of the same molecule?
**A.** Its GI50 is > 100 µM (inactive).

**Q.** What about the GI50 (SK-OV-3) of the same molecule?
**A.** The GI50 was > 100 µM (inactive).

**Q.** And the GI50 (SN12C)?
**A.** Its GI50 is > 100 µM (inactive).

**Q.** What about the GI50 (SNB-19) of the same molecule?
**A.** Its GI50 is > 100 µM (inactive).

**Q.** And the GI50 (SR)?
**A.** The GI50 was > 100 µM (inactive).

**Q.** And the GI50 (SW-620)?
**A.** Its GI50 is > 100 µM (inactive).

**Q.** And the GI50 (T47D)?
**A.** The GI50 was > 100 µM (inactive).

**Q.** And the GI50 (TK-10)?
**A.** The GI50 was > 100 µM (inactive).

**Q.** And the GI50 (U-251)?
**A.** Its GI50 is > 100 µM (inactive).

**Q.** And the GI50 (UACC-257)?
**A.** The GI50 was > 100 µM (inactive).

**Q.** What about the GI50 (UACC-62) of the same molecule?
**A.** Its GI50 is > 100 µM (inactive).
